The values that follow come from patent US10934255B2, “Nrf and HIF activators/HDAC inhibitors and therapeutic methods using the same” (THE BOARD OF TRUSTEES OF THE UNIVERSITY OF ILLINOIS, priority 2017, dated 2021).

SMILES strings stand for the structures. Read-outs that look alike come from different tables or passages of the source.

One data set has as its target T1, Human HDAC1 (Homo sapiens, UniProt Q13547).
T1 construct: Full length with C-terminal GST tag, MW=79.9 kDa; GST (C); host or cells: Sf9 insect cells (baculovirus)
Nature of the data set: HDAC1 inhibition assay (fluorogenic p53 peptide substrate). The format is biochemical. As for the experimental part:
(§1) The HDAC1, 2, 4, 5, 6, 7, 8, 9, 10, and 11 assays used isolated recombinant human protein; HDAC3/NcoR2 complex was used for the HDAC3 assay. Substrate for HDAC1, 2, 3, 6, 10, and 11 assays is a fluorogenic peptide from p53 residues 379-382 (RHKKAc); substrate for HDAC8 is fluorogenic diacyl peptide based on residues 379-382 of p53 (RHKAcKAc). Acetyl-Lys(trifluoroacetyl)-AMC substrate was used for HDAC4, 5, 7, and 9 assays. Compounds were dissolved in DMSO and tested in 10-dose IC50 mode with 3-fold serial dilution starting at 30 μM. Control Compound Trichostatin A (TSA) was tested in a 10-dose IC50 with 3-fold serial dilution starting at 5 μM. IC50 values were extracted by curve-fitting the dose/response slopes. Assays were performed in duplicate and IC50 values are an average of data from both experiments.
Human HDAC1 (GenBank Accession No. NM_004964): Full length with C-terminal GST tag, MW=79.9 kDa, expressed by baculovirus expression system in Sf9 cells. Enzyme is in 50 mM Tris-HCl, pH 8.0, 138 mM NaCl, 20 mM glutathione, and 10% glycerol, and stable for >6 months at −80° C. Purity is >10% by SDS-PAGE. Specific Activity is 20 U/μg, where one U=1 pmol/min under assay condition of 25 mM Tris/Cl, pH8.0, 137 mM NaCl, 2.7 mM KCl, 1 mM MgCl2, 0.1 mg/ml BSA, 100 μM HDAC substrate, and 13.2 ng/μl HDAC1, incubation for 30 min at 30° C.
Substrate for HDAC1 and HDAC6: Acetylated peptide substrate for HDAC, based on residues 379-382 of p53 (Arg-His-Lys-Lys(Ac)), a site of regulatory acetylation by the p300 and CBP acetyltransferases (lysines 381, 382)1-6, is the best for HDAC from among a panel of substrates patterned on p53, histone H3 and histone H4 acetylation sites7.
Reaction Buffer: 50 mM Tris-HCl, pH 8.0, 137 mM NaCl, 2.7 mM KCl, 1 mM MgCl2, 1 mg/ml BSA.
HDAC1: 75 nM HDAC1 and 50 μM HDAC substrate are in the reaction buffer and 1% DMSO final. Incubate for 2 hours at 30° C.
All IC50 values are automatically calculated using the GraphPad Prism version 5 and Equation of Sigmoidal dose-response (variable slope): Y=Bottom+(Top−Bottom)/(1+10^((Log EC50−X)*HillSlope)), where X is the logarithm of concentration, Y is the response, Y starts at Bottom and goes to Top with a sigmoid shape. In most cases, “Bottom” is set 0, and “Top” is set “less than 120%”. This is identical to the “four parameter logistic equation”. IC50 curves also are drawn using the GraphPad Prism, and IC50 values and Hill slopes are provided.
HDAC Activity Assays: HDAC assay is performed using fluorescently-labeled acetylated substrate, which comprises an acetylated lysine side chain. After incubation with HDAC, deacetylation of the substrate sensitizes the substrate such that, in a second step, treatment with the detection enzyme produces a fluorophore. HDACs 1 and 6 were expressed as full length fusion proteins. Purified proteins were incubated with 50 μM fluorescently-labeled acetylated peptide substrate and test compound for 2 hours at RT in HDAC assay buffer containing 50 mM Tris-HCl (pH 8.0), 137 mM NaCl, 2.7 mM KCl, 1 mM MgCl2, 1% DMSO, and 1% BSA.
Reactions were terminated by the addition of the Developer after 2 hours, and the development of fluorescence signal, which was relative to the amount of deacetylated peptide, was monitored by time-course measurement of EnVision (PerkinElmer). The HDAC activity was estimated from the slope of time-course measurement of the fluorescence intensity. The slope of no-enzyme control (substrate alone) was served as background, and % Enzyme activity was calculated using background-subtracted slope of no inhibitor control (DMSO) as 100% activity.

In a further data set the test system is Nrf2. Nature of the data set: Nrf2 activation, Neh2-luc reporter assay. The format is cell-based. As to conditions: measured at 10 μM. As for the experimental part: (§2) The present compounds were evaluated for an ability to activate Nrf2 and HIF-1α. Table 1 summarizes Nrf2 activation data obtained in Neh2-luc reporter assay; and HIF1 activation measured in ODD reporter assay.
In general terms: Reporter assays use an easily measured gene product as a stand-in for the process of interest.

For another data set, the system named is HIF-1α. Nature of the data set: HIF1 activation, ODD reporter assay. The format is cell-based. As to conditions: measured at 10 μM. As for the experimental part: as §2
Another data set deals with acetylated α-tubulin. Description: Tubulin acetylation in N2a cells (western blot). The format is cell-based, mouse. As to conditions: normalized to the values of DMSO. As for the experimental part:
Cells were collected using RIPA buffer. WB was analyzed using Image QuantTL and the ratio between the intensity of the acetylated tubulin and the tubulin bands was calculated. These ratios were subsequently normalized to the values of DMSO (fold increase). For each sample 50 μg protein was loaded on a 12% SDS-PAGE gel and blotted on a PVDF membrane. The integrated density of acetylated α-tubulin and α-tubulin was measured on WB using Image J software. Furthermore the ratio between the integrated density of acetylated α-tubulin and α-tubulin was calculated.

The target of another data set is HDAC2 (Homo sapiens, UniProt Q92769). Nature of the data set: HDAC2 isoform selectivity assay. The format is biochemical. As to conditions: Table 2 isoform selectivity; read-out: HDAC Inhibition (IC50 uM) isoform 2. As for the experimental part: as §1
Chain of HDAC2 (Q92769 whole entry, canonical isoform): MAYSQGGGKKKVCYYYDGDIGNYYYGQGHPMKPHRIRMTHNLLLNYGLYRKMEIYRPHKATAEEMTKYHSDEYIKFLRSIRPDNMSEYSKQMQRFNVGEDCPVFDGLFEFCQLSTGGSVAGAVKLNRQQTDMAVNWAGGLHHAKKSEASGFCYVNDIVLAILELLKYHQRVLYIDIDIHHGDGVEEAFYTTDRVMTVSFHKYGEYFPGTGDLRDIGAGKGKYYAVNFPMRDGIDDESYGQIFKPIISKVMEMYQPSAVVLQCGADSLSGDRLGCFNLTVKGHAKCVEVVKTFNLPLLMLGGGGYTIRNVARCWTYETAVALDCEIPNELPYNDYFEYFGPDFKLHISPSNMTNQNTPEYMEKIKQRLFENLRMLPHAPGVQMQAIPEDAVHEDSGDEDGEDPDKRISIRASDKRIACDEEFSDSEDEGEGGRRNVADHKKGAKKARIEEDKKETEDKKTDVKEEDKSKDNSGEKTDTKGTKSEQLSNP
For a further data set, the target named is HDAC3/NcoR2 complex (Homo sapiens, UniProt O15379). Description: HDAC3 isoform selectivity assay. As to conditions: Table 2 isoform selectivity; read-out: HDAC Inhibition (IC50 uM) isoform 3. The format is biochemical. As for the experimental part: The HDAC1, 2, 4, 5, 6, 7, 8, 9, 10, and 11 assays used isolated recombinant human protein; HDAC3/NcoR2 complex was used for the HDAC3 assay. […] Acetyl-Lys(trifluoroacetyl)-AMC substrate was used for HDAC4, 5, 7, and 9 assays. […] IC50 values were extracted by curve-fitting the dose/response slopes. Assays were performed in duplicate and IC50 values are an average of data from both experiments.
Chain of HDAC3/NcoR2 complex (O15379 whole entry, canonical isoform): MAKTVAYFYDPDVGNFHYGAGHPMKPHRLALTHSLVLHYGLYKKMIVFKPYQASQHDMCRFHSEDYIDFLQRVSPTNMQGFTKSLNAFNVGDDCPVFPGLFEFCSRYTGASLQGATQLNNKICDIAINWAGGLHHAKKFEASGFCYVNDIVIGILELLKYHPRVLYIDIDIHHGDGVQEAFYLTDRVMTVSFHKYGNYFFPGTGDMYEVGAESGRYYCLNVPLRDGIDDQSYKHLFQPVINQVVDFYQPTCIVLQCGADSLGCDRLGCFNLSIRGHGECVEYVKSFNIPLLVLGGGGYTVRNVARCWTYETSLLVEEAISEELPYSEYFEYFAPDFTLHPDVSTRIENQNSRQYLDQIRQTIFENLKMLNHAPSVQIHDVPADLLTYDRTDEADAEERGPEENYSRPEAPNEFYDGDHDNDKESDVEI
Chain of HDAC3/NcoR2 complex (Q9Y618 395-489 partner limits assumed): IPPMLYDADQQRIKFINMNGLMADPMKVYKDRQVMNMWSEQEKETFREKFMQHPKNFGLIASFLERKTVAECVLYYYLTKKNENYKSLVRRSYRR

The next data set addresses HDAC4 (Homo sapiens, UniProt P56524). Nature of the data set: HDAC4 isoform selectivity assay. As to conditions: Table 2 isoform selectivity; read-out: HDAC Inhibition (IC50 uM) isoform 4. The format is biochemical. The protocol: as §1
For the next data set, the target named is HDAC5 (Homo sapiens, UniProt Q9UQL6). Description: HDAC5 isoform selectivity assay. The format is biochemical. As to conditions: Table 2 isoform selectivity; read-out: HDAC Inhibition (IC50 uM) isoform 5. As for the experimental part:
as §1

In a further data set the target is HDAC9 (Homo sapiens, UniProt Q9UKV0). Nature of the data set: HDAC9 isoform selectivity assay. As to conditions: Table 2 isoform selectivity; read-out: HDAC Inhibition (IC50 uM) isoform 9. The format is biochemical. As for the experimental part: as §1
Chain of HDAC9 (Q9UKV0 whole entry, canonical isoform): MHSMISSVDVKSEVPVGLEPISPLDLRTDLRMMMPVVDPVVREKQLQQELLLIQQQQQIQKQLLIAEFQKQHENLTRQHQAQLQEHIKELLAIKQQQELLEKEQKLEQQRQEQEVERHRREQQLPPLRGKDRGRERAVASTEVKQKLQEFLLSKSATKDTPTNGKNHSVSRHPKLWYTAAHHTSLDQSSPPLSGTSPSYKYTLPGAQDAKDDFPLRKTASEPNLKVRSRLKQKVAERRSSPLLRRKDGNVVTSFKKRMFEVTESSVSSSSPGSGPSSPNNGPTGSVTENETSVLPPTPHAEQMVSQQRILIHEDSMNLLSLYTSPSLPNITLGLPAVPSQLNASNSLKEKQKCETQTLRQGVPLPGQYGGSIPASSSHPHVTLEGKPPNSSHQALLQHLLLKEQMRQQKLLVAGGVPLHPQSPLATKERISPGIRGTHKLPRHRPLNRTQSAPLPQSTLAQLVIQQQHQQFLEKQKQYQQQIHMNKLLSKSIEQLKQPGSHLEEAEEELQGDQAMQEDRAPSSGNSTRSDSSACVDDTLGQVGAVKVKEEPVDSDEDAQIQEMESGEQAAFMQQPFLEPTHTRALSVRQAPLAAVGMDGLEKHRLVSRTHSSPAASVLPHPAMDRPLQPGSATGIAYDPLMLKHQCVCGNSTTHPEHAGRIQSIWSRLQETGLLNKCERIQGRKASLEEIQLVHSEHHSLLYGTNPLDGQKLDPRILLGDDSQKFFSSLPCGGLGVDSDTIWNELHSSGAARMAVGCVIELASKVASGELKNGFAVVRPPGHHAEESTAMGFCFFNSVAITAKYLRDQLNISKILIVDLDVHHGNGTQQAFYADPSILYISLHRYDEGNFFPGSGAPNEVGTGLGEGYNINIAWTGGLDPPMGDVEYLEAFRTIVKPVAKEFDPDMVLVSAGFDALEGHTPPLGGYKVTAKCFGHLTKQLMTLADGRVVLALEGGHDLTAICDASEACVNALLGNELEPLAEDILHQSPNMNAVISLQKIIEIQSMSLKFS
Data set [1] in a line: In vitro metabolic stability in human liver microsomes. The format is in vitro ADME. As to conditions: human liver microsomes after 60 min at 10 uM. In general terms: Liver microsomes are vesicles of endoplasmic reticulum, rich in cytochrome P450 enzymes.
[2] abbreviates: Table 1, performed by Reaction Biology Corporation, read-out: HDAC isoform IC50 (nM) 1.
Where [3] appears, read: Table 2 isoform selectivity, read-out: HDAC Inhibition (IC50 uM) isoform 1.

T1 sequence (Q13547 whole entry): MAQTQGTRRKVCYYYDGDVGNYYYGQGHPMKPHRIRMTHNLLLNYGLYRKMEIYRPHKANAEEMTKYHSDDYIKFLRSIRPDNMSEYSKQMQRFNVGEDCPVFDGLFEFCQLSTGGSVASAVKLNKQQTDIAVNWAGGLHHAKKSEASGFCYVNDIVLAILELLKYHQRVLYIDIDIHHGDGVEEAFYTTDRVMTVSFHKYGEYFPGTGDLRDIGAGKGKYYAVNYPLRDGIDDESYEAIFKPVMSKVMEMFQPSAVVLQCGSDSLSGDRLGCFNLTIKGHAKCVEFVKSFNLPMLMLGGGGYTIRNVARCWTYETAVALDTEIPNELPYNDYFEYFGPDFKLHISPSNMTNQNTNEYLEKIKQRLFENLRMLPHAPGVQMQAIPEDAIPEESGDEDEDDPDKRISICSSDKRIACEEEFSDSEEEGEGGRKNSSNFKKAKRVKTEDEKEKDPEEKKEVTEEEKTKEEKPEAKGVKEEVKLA
Chain of HDAC4 (P56524 whole entry, canonical isoform): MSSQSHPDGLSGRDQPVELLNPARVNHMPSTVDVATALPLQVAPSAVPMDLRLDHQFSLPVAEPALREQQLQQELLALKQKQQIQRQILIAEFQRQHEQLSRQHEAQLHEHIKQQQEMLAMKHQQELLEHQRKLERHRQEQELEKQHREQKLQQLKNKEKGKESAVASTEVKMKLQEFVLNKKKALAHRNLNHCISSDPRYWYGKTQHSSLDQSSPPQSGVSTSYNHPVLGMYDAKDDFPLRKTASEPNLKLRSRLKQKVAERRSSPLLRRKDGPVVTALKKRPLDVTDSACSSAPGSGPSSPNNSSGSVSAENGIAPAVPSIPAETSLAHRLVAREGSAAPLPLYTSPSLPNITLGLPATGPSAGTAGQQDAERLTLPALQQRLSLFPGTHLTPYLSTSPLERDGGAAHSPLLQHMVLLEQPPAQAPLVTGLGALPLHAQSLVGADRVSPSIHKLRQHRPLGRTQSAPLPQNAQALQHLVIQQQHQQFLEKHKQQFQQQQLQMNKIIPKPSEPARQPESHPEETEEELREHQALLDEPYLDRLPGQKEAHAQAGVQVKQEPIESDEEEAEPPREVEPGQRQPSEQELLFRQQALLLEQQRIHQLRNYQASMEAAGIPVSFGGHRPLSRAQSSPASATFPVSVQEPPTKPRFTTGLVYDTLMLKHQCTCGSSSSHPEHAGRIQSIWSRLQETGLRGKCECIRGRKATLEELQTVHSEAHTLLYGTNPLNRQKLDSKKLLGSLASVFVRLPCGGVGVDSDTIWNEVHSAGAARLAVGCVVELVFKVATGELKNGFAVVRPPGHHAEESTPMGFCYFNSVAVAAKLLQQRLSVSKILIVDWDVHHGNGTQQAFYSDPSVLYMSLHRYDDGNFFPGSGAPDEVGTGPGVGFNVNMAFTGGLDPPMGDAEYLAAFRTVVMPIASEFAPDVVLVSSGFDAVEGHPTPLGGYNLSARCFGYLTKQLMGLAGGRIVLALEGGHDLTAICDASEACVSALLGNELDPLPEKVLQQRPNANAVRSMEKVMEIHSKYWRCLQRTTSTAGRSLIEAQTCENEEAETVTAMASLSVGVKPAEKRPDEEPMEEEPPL
Chain of HDAC5 (Q9UQL6 whole entry, canonical isoform): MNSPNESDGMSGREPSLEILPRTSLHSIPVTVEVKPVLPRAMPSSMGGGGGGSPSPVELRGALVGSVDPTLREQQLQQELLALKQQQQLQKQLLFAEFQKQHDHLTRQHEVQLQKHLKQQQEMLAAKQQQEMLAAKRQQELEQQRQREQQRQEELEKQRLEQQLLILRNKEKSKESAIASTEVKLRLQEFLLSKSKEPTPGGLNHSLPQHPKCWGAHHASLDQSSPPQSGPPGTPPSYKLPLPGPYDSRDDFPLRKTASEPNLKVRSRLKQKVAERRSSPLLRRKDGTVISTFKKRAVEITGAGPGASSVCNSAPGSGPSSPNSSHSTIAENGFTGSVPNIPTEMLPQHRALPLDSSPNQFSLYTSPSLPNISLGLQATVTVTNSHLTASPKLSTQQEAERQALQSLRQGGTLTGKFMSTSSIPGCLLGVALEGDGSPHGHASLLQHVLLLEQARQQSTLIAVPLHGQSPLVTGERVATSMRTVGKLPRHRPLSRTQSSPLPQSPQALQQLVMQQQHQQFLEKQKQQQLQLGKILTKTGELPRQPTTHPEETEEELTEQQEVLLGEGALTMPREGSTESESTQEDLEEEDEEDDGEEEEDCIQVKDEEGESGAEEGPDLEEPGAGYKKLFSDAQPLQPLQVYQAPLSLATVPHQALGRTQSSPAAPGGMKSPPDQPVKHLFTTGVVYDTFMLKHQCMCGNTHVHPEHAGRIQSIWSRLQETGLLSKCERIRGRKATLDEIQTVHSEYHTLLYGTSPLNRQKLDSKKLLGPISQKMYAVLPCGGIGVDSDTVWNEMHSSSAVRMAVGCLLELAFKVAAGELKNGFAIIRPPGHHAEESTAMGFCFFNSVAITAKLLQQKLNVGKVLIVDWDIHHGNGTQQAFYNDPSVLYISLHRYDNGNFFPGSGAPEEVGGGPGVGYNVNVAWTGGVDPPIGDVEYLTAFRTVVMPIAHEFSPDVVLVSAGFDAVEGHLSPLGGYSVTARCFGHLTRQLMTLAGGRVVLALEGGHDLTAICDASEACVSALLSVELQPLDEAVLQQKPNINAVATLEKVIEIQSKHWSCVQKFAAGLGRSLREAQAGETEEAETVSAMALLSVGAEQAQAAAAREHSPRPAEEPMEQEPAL

Usually IC50 stands for the concentration that inhibits the measured activity by half. As usually defined, the fold induction is the signal under treatment as a multiple of the control signal. A low value points to a weak induction. Turning to `O=C(NO)c1ccc(CN2C(=O)C(F)(F)c3ccccc32)cc1` [II-ING-66, 4-((3,3-Difluoro-2-oxoindolin-1-yl)methyl)-N-hydroxybenzamide], the IC50 on Human HDAC1 (setting [2]) turned out to be 3550 nM. The fold induction at 10 µM in the data set on Nrf2 was 9.9; in the data set on HIF-1α, 5.6.

Regarding `O=C(NO)c1ccc(CN2CCc3cc(F)ccc32)cc1` [II-ING-42, 4-((5-Fluoroindolin-1-yl)methyl)-N-hydroxybenzamide], at Human HDAC1 (setting [2]), the IC50 is 20000 nM. Moreover, the “Ratio acetyl tub/tub fold increase” value in the data set on acetylated α-tubulin (0.1 uM) is 2.46 (0.1 uM) fold. The fold induction at 10 µM with Nrf2 was 7.7; with HIF-1α, 1.4.

Regarding `O=C(NO)c1ccc(CN2CCc3ccccc32)cc1` [II-ING-44, N-Hydroxy-4-(indolin-1-ylmethyl)benzamide], the IC50 at Human HDAC1 (setting [2]) was 17600 nM. Further, the “Ratio acetyl tub/tub fold increase” value in the data set with acetylated α-tubulin (0.1 uM) is on record as 2.68 (0.1 uM) fold. Moreover, the results for the fold induction at 10 µM in the data set with Nrf2 and in the data set on HIF-1α were 2.3 and 1.4, respectively.

`O=C(NO)c1ccc(CN2CCc3ccc(Cl)cc32)cc1` [II-ING-6, 4-((6-Chloroindolin-1-yl)methyl)-N-hydroxybenzamide]: the half-inhibitory concentration (IC50) at Human HDAC1 (setting [2]) was 5580 nM; at Human HDAC1 (setting [3]), 3770 nM; on HDAC2 it was 6.24 µM; at HDAC3/NcoR2 complex, 4.34 µM; on HDAC4, 3.48 µM; on HDAC5, 2.7 µM. Moreover, the IC50 at HDAC9 came to 2.06 µM. Further, in the data set on acetylated α-tubulin (1.0 uM), the “Ratio acetyl tub/tub fold increase” value is 15.5 1.0 uM fold. Further, the values for the fold induction at 10 µM in the data set on Nrf2 and in the data set with HIF-1α were 5.6 and 7.5, respectively. Also, the “Microsomes stability (% remaining vsT0)” value in [1] was found to be 88.6 % remaining vsT0.

On to `COc1ccc2c(c1)CCN2Cc1ccc(C(=O)NO)cc1` [II-ING-49, N-Hydroxy-4-((5-methoxyindolin-1-yl)methyl)benzamide], for which, at Human HDAC1 (setting [2]), the IC50 is 4950 nM. For the same compound, the “Ratio acetyl tub/tub fold increase” value with acetylated α-tubulin (0.1 uM) is 2.61 (0.1 uM) fold. Besides, the fold induction at 10 µM with Nrf2 came out at 2.4; with HIF-1α, 1.

On to `Cn1c(NCc2ccc(C(=O)NO)cc2)nc2ccccc21` [II-ING-13, N-Hydroxy-4-(((1-methyl-1H-benzo[d]imidazol-2-yl)amino)methyl)benzamide], for which the IC50 was 2630 nM at Human HDAC1 (setting [2]); 2550 nM on Human HDAC1 (setting [3]); 5.2 µM at HDAC2; 3.51 µM at HDAC3/NcoR2 complex; 2.42 µM on HDAC4; 1.96 µM at HDAC5. The IC50 on HDAC9 is 1.1 µM. Further, the “Ratio acetyl tub/tub fold increase” value in the data set with acetylated α-tubulin (0.01 uM) is 2.0 (0.01 uM) fold. Further, the fold induction at 10 µM is 1.8 with Nrf2 and 2.6 with HIF-1α.

With `O=C(NO)c1ccc(CN2CCc3cc(Cl)ccc32)cc1` [II-ING-39, 4-((5-Chloroindolin-1-yl)methyl)-N-hydroxybenzamide], at Human HDAC1 (setting [2]), the IC50 came to 12700 nM. The “Ratio acetyl tub/tub fold increase” value in the data set with acetylated α-tubulin (0.1 uM) was 1.69 (0.1 uM) fold. For the same compound, the fold induction at 10 µM is 6.5 with Nrf2 and 7 with HIF-1α. In addition, in data set [1], the “Microsomes stability (% remaining vsT0)” value was found to be 81.7 % remaining vsT0.

As to `O=C(NO)c1ccc(CN2CCc3ccc(F)cc32)cc1` [II-ING-41, 4-((6-Fluoroindolin-1-yl)methyl)-N-hydroxybenzamide], the IC50 was found to be 11800 nM on Human HDAC1 (setting [2]); 3670 nM at Human HDAC1 (setting [3]); 7.15 µM at HDAC2; 5.43 µM at HDAC3/NcoR2 complex; 2.41 µM on HDAC4; 1.39 µM on HDAC5. Moreover, the IC50 on HDAC9 turned out to be 1 µM. Besides, in the data set on acetylated α-tubulin (0.1 uM), the “Ratio acetyl tub/tub fold increase” value is listed as 3.47 (0.1 uM) fold. In addition, the results for the fold induction at 10 µM with Nrf2 and with HIF-1α were 7.8 and 3.6, respectively. Further, the “Microsomes stability (% remaining vsT0)” value in [1] is 88.1 % remaining vsT0.
